Test system: 885512-296-R-J2-PDC complex spheroid viability
Assay: Anticancer human tumor 885512-296-R-J2-PDC patient-derived breast carcinoma cell line growth inhibition [GQUAD]
Details: for IC50: curve of first compound; for viability, T/C: stronger effect = lower value
Summary of the method: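 Viability of tumor cells grown as complex spheroids with endothelial and stromal cells, exposed to drug combinations. Top concentration at or near clinical Cmax (else 10 microM), diluted in half-log increments.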

[1] = second compound 0.0316 µM, first compound 0.0316 µM
[2] = second compound 0.0316 µM, first compound 0.1 µM
[3] = second compound 0.0316 µM, first compound 0.316 µM
[4] = second compound 0.0316 µM, first compound 1 µM
[5] = second compound 0.0316 µM, first compound 3.16 µM
[6] = second compound 0.0316 µM, first compound 10 µM
[7] = second compound 0.1 µM, first compound 0.0316 µM
[8] = second compound 0.1 µM, first compound 0.1 µM
[9] = second compound 0.1 µM, first compound 0.316 µM
[10] = second compound 0.1 µM, first compound 1 µM
[11] = second compound 0.1 µM, first compound 3.16 µM
[12] = second compound 0.1 µM, first compound 10 µM
[13] = second compound 0.316 µM, first compound 0.0316 µM
[14] = second compound 0.316 µM, first compound 0.1 µM
[15] = second compound 0.316 µM, first compound 0.316 µM
[16] = second compound 0.316 µM, first compound 1 µM
[17] = second compound 0.316 µM, first compound 3.16 µM
[18] = second compound 0.316 µM, first compound 10 µM
[19] = second compound 1 µM, first compound 0.0316 µM
[20] = second compound 1 µM, first compound 0.1 µM
[21] = second compound 1 µM, first compound 0.316 µM
[22] = second compound 1 µM, first compound 1 µM
[23] = second compound 1 µM, first compound 3.16 µM
[24] = second compound 1 µM, first compound 10 µM
[25] = second compound 3.16 µM, first compound 0.0316 µM
[26] = second compound 3.16 µM, first compound 0.1 µM
[27] = second compound 3.16 µM, first compound 0.316 µM
[28] = second compound 3.16 µM, first compound 1 µM
[29] = second compound 3.16 µM, first compound 3.16 µM
[30] = second compound 3.16 µM, first compound 10 µM
[31] = second compound 10 µM, first compound 0.0316 µM
[32] = second compound 10 µM, first compound 0.1 µM
[33] = second compound 10 µM, first compound 0.316 µM
[34] = second compound 10 µM, first compound 1 µM
[35] = second compound 10 µM, first compound 3.16 µM
[36] = second compound 10 µM, first compound 10 µM
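Also: spheroids exposed to the compounds for one week.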
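For viability, T/C in this document: percent of tumor spheroid viability relative to DMSO vehicle control wells.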

C=CC(=O)N1CCN(c2nc(=O)n(-c3c(C)ccnc3C(C)C)c3nc(-c4c(O)cccc4F)c(F)cc23)C(C)C1 (stereo not given) + Cc1[nH]c2ccc(F)cc2c1-c1nc2c3cccnc3c3ncccc3c2[nH]1
IC50 (second compound 0.0316 µM): > 10000 nM
IC50 (second compound 0.1 µM): > 10000 nM
IC50 (second compound 0.316 µM): > 10000 nM
IC50 (second compound 1 µM): > 10000 nM
IC50 (second compound 3.16 µM): < 31.6 nM
IC50 (second compound 10 µM): < 31.6 nM
viability, T/C [1]: 122%
viability, T/C [2]: 91%
viability, T/C [3]: 84.7%
viability, T/C [4]: 106%
viability, T/C [5]: 111%
viability, T/C [6]: 96.3%
viability, T/C [7]: 118%
viability, T/C [8]: 96.2%
viability, T/C [9]: 97.4%
viability, T/C [10]: 102%
viability, T/C [11]: 103%
viability, T/C [12]: 93.4%
viability, T/C [13]: 92.9%
viability, T/C [14]: 103%
viability, T/C [15]: 102%
viability, T/C [16]: 102%
viability, T/C [17]: 91.9%
viability, T/C [18]: 88.8%
viability, T/C [19]: 78.9%
viability, T/C [20]: 79.1%
viability, T/C [21]: 95.7%
viability, T/C [22]: 90%
viability, T/C [23]: 77.3%
viability, T/C [24]: 72.1%
viability, T/C [25]: 30.6%
viability, T/C [26]: 22.9%
viability, T/C [27]: 21.2%
viability, T/C [28]: 31.2%
viability, T/C [29]: 32.9%
viability, T/C [30]: 27.2%
viability, T/C [31]: 1.88%
viability, T/C [32]: 1.76%
viability, T/C [33]: 2.07%
viability, T/C [34]: 3.47%
viability, T/C [35]: 6.47%
viability, T/C [36]: 3.97%

CC(C)n1c(=O)n(C)c2cnc3cc(F)c(-c4ccc(OCCCN5CCCCC5)nc4)cc3c21 + Cc1[nH]c2ccc(F)cc2c1-c1nc2c3cccnc3c3ncccc3c2[nH]1
IC50 (second compound 0.0316 µM): > 10000 nM
IC50 (second compound 0.1 µM): > 10000 nM
IC50 (second compound 0.316 µM): > 10000 nM
IC50 (second compound 1 µM): 4450 nM
IC50 (second compound 3.16 µM): < 31.6 nM
IC50 (second compound 10 µM): < 31.6 nM
viability, T/C [1]: 84.4%
viability, T/C [2]: 82.5%
viability, T/C [3]: 83.2%
viability, T/C [4]: 103%
viability, T/C [5]: 112%
viability, T/C [6]: 98.9%
viability, T/C [7]: 92.1%
viability, T/C [8]: 92.3%
viability, T/C [9]: 88%
viability, T/C [10]: 104%
viability, T/C [11]: 104%
viability, T/C [12]: 122%
viability, T/C [13]: 89.1%
viability, T/C [14]: 77.6%
viability, T/C [15]: 89.7%
viability, T/C [16]: 90%
viability, T/C [17]: 103%
viability, T/C [18]: 67.3%
viability, T/C [19]: 48.6%
viability, T/C [20]: 68.2%
viability, T/C [21]: 63.9%
viability, T/C [22]: 66%
viability, T/C [23]: 68.8%
viability, T/C [24]: 19%
viability, T/C [25]: 7.3%
viability, T/C [26]: 8.5%
viability, T/C [27]: 13.1%
viability, T/C [28]: 10%
viability, T/C [29]: 10.8%
viability, T/C [30]: 1.66%
viability, T/C [31]: 1.24%
viability, T/C [32]: 4.55%
viability, T/C [33]: 2.57%
viability, T/C [34]: 2.18%
viability, T/C [35]: 2.19%
viability, T/C [36]: 1.31%

CC1COCCN1c1cc(-c2ccnn2C)c2ccnc(-c3ccn[nH]3)c2n1 (stereo not given) + Cc1[nH]c2ccc(F)cc2c1-c1nc2c3cccnc3c3ncccc3c2[nH]1
IC50 (second compound 0.0316 µM): < 31.6 nM
IC50 (second compound 0.1 µM): 36 nM
IC50 (second compound 0.316 µM): < 31.6 nM
IC50 (second compound 1 µM): < 31.6 nM
IC50 (second compound 3.16 µM): < 31.6 nM
IC50 (second compound 10 µM): < 31.6 nM
viability, T/C [1]: 44.6%
viability, T/C [2]: 7.14%
viability, T/C [3]: 3.23%
viability, T/C [4]: 2.97%
viability, T/C [5]: 4.21%
viability, T/C [6]: 7.57%
viability, T/C [7]: 55.6%
viability, T/C [8]: 5.92%
viability, T/C [9]: 3.53%
viability, T/C [10]: 3.59%
viability, T/C [11]: 5.52%
viability, T/C [12]: 6.77%
viability, T/C [13]: 37.9%
viability, T/C [14]: 3.68%
viability, T/C [15]: 2.99%
viability, T/C [16]: 2.87%
viability, T/C [17]: 5.08%
viability, T/C [18]: 7.25%
viability, T/C [19]: 5.35%
viability, T/C [20]: 3.41%
viability, T/C [21]: 2.46%
viability, T/C [22]: 2.67%
viability, T/C [23]: 5.38%
viability, T/C [24]: 5.76%
viability, T/C [25]: 1.59%
viability, T/C [26]: 1.58%
viability, T/C [27]: 1.11%
viability, T/C [28]: 1.8%
viability, T/C [29]: 3.23%
viability, T/C [30]: 3.81%
viability, T/C [31]: 1.17%
viability, T/C [32]: 1.15%
viability, T/C [33]: 1.51%
viability, T/C [34]: 2.19%
viability, T/C [35]: 2.68%
viability, T/C [36]: 4.02%

CC1COCCN1c1cc(C2(O)CC3CCC(C2)O3)c2cnn(-c3ccn[nH]3)c2n1 (stereo not given) + Cc1[nH]c2ccc(F)cc2c1-c1nc2c3cccnc3c3ncccc3c2[nH]1
IC50 (second compound 0.0316 µM): < 31.6 nM
IC50 (second compound 0.1 µM): < 31.6 nM
IC50 (second compound 0.316 µM): < 31.6 nM
IC50 (second compound 1 µM): < 31.6 nM
IC50 (second compound 3.16 µM): < 31.6 nM
IC50 (second compound 10 µM): < 31.6 nM
viability, T/C [1]: 34.7%
viability, T/C [2]: 5.25%
viability, T/C [3]: 3.32%
viability, T/C [4]: 4.26%
viability, T/C [5]: 6.56%
viability, T/C [6]: 9.72%
viability, T/C [7]: 29.1%
viability, T/C [8]: 4.51%
viability, T/C [9]: 2.65%
viability, T/C [10]: 4.14%
viability, T/C [11]: 6.29%
viability, T/C [12]: 8.64%
viability, T/C [13]: 14.5%
viability, T/C [14]: 3.01%
viability, T/C [15]: 3.13%
viability, T/C [16]: 3.89%
viability, T/C [17]: 7.17%
viability, T/C [18]: 8.72%
viability, T/C [19]: 3.34%
viability, T/C [20]: 3.2%
viability, T/C [21]: 2.99%
viability, T/C [22]: 3.85%
viability, T/C [23]: 7.13%
viability, T/C [24]: 4.46%
viability, T/C [25]: 1.99%
viability, T/C [26]: 1.52%
viability, T/C [27]: 2.56%
viability, T/C [28]: 3.64%
viability, T/C [29]: 4.56%
viability, T/C [30]: 3.61%
viability, T/C [31]: 1.09%
viability, T/C [32]: 1.19%
viability, T/C [33]: 1.76%
viability, T/C [34]: 2.85%
viability, T/C [35]: 4.02%
viability, T/C [36]: 3.55%

O=C(c1cc(Cc2n[nH]c(=O)c3ccccc23)ccc1F)N1CCN(C(=O)C2CC2)CC1 + Cc1[nH]c2ccc(F)cc2c1-c1nc2c3cccnc3c3ncccc3c2[nH]1
IC50 (second compound 0.0316 µM): 8270 nM
IC50 (second compound 0.1 µM): 9460 nM
IC50 (second compound 0.316 µM): 8460 nM
IC50 (second compound 1 µM): 5090 nM
IC50 (second compound 3.16 µM): < 31.6 nM
IC50 (second compound 10 µM): < 31.6 nM
viability, T/C [1]: 105%
viability, T/C [2]: 96.3%
viability, T/C [3]: 124%
viability, T/C [4]: 139%
viability, T/C [5]: 134%
viability, T/C [6]: 36%
viability, T/C [7]: 98%
viability, T/C [8]: 103%
viability, T/C [9]: 119%
viability, T/C [10]: 137%
viability, T/C [11]: 146%
viability, T/C [12]: 46.4%
viability, T/C [13]: 94.3%
viability, T/C [14]: 99.2%
viability, T/C [15]: 112%
viability, T/C [16]: 150%
viability, T/C [17]: 131%
viability, T/C [18]: 38.7%
viability, T/C [19]: 75.2%
viability, T/C [20]: 74.4%
viability, T/C [21]: 82.4%
viability, T/C [22]: 101%
viability, T/C [23]: 70.5%
viability, T/C [24]: 21%
viability, T/C [25]: 13.8%
viability, T/C [26]: 13.9%
viability, T/C [27]: 16.7%
viability, T/C [28]: 14.9%
viability, T/C [29]: 6.15%
viability, T/C [30]: 2.65%
viability, T/C [31]: 2.34%
viability, T/C [32]: 2.08%
viability, T/C [33]: 3.14%
viability, T/C [34]: 1.59%
viability, T/C [35]: 1.27%
viability, T/C [36]: 1.27%

Reference: PubChem BioAssay AID2060490 (Molecular Pharmacology Branch, DTP, NCI, 2025)
